Laboratory results taken from publication PMC4977052, “On the Utility of ToxCast™ and ToxPi as Methods for Identifying New Obesogens” (Environmental Health Perspectives, 2016).
Values joined by “and” are separate entries in the source; they are usually repeats but may differ in a detail not shown here. Identical values can stand only once. Like-named read-outs stand apart in the source and are kept apart here.

How the values were obtained:
PPARγ [1] = conditions: cited from earlier work
GAL4-mPPARγ [2] = molecular target: T1, GAL4-mPPARγ (Mus musculus, UniProt P37238); assay: GAL4-mPPARγ activation, transient transfection luciferase reporter in COS7 cells; format: cell-based
T1 construct: expressed in transfected cells; host or cells: COS7
T1 sequence (P37238 with tags, fused parts or gaps limits assumed): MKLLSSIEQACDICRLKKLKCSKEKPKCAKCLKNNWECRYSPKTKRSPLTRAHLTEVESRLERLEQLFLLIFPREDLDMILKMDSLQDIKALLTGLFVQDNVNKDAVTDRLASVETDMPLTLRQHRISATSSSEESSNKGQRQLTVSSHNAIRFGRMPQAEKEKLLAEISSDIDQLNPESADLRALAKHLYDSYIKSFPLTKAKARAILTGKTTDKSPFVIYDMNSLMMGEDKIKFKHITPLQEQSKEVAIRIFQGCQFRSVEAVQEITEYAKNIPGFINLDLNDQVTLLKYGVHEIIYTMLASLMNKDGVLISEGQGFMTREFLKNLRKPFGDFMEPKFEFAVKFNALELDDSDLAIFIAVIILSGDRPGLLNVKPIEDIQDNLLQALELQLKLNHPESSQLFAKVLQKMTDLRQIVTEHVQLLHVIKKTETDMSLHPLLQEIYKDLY
Procedure: (§1) pCMX-Gal4, pCMX-Gal4-mPPARγ, and pCMX-Gal4-hRXRα were previously described ([Grün et al. 2006]). Transient transfections were performed in COS7 cells as described ([Chamorro-García et al. 2012]). Briefly, COS7 cells were seeded at 15,000 cells per well in 96-well tissue culture plates in 10% calf bovine serum. The following day, cells were transfected in Opti-MEM at ~ 90% confluency. One microgram of CMX-GAL4 effector plasmid was co-transfected with 5 μg tk-(MH100)4-luciferase reporter and 5 μg of CMX-β-galactosidase transfection control plasmids in Opti-MEM® using Lipofectamine® 2000 reagent (Invitrogen™ Life Technologies, Carlsbad, CA, USA), following the manufacturer’s recommended protocol. All chemicals were solvated in dimethyl sulfoxide (DMSO). After overnight incubation, the medium was replaced with Dulbecco’s Modified Eagle Medium (DMEM; HyClone, Logan, UT, USA), 10% resin charcoal stripped fetal bovine serum (FBS) plus ligands at concentrations indicated in the figure legends for an additional 24 hr. DMSO concentration was maintained at 0.05% across all chemical treatments. Cells were lysed and assayed for luciferase and β-galactosidase activity as previously described ([Forman et al. 1995]). All transfections were performed in triplicate and reproduced in multiple experiments. Data are reported as fold induction or reduction over vehicle ([…]) controls ± SEM (standard error of the mean) using standard propagation of error ([Bevington and Robinson 2003]). […] The EC50, EC10, IC50, and IC10 values from NCGC and ToxCast™ are reported from gain AC50 and AC10 values in the ToxCast™ 2014 release ([Filer et al. 2014]).
(§2) Figure 1 ToxCast™ Chemical Activity on PPARγ. The ability of a graded dose series of ToxCast™ chemicals to (A) activate or (B) antagonize GAL4-mPPARγ was tested in transiently transfected COS7 cells. (A, B) Data points are averages of triplicate transfections (three biological replicates). […] Data are depicted as (A) fold induction or (B) reduction over vehicle (0.05% DMSO) controls ± SEM. (A) ToxCast™ chemicals were tested in 3-fold serial dilutions from 100 μM through 0.137 μM, with the final data point being 0.05% DMSO. Rosiglitazone serves as a positive control activator. (B) ToxCast™ chemicals were tested in 3-fold serial dilutions from 100 μM, in competition with 50 nM rosiglitazone (Rosi). […] (C) EC50, EC10, IC50, and IC10 values calculated from A and B are reported and compared to commercial assays (see Figure S1). Note: ATG, Attagene GAL-PPARγ activation assay; NCGC, GeneBLAzer® agonist (EC values) or antagonist (IC values) assays. Triphenyltin was previously published ([Kanayama et al. 2005]).
Figure 4 ToxPi Chemical Activity on PPARγ and RXRα. The ability of a graded dose series of ToxPi chemicals to activate (A) GAL4-mPPARγ or (B) GAL4-hRXRα was tested in transiently transfected COS7 cells. (A, B) Data points are averages of triplicate transfections (three biological replicates). […] ToxPi chemicals were tested in 3-fold serial dilutions from 100 μM through 0.137 μM, with the final data point being 0.05% DMSO. Data are depicted as fold induction over vehicle (0.05% DMSO) controls ± SEM. (A) Rosiglitazone serves as a positive control activator for GAL4-mPPARγ. (B) LG100268 (2-[1-(3,5,5,8,8-Pentamethyl-5,6,7,8-tetrahydro-2-naphthyl)cyclopropyl]pyridine-5-carboxylic acid) serves as a positive control activator for GAL4-hRXRα. (C) EC50 and EC10 values calculated from A and B are reported and compared to other assays (see Figure S1). ATG, Attagene GAL-PPARγ or GAL-RXRα activation assay; NCGC, GeneBLAzer® GAL-PPARγ or GAL-RXRα activation assays. Triphenyltin was previously published ([Kanayama et al. 2005]).

PPARγ [3] = test system: PPARγ; parameters: method as in Filer et al. 2014; conditions: ref Filer et al. 2014, cited from earlier work; for AC50: PPARγ, NA = not active, read-out: NCGC Antag. AC50, 2014 Release
PPARγ [4] = conditions: ref Filer et al. 2014, cited from earlier work
Human PPARγ = conditions: cited from earlier work
3T3-L1 preadipocytes = assay: 3T3-L1 adipogenesis assay (lipid accumulation, adipogenic gene expression); format: cell-based; conditions: 0.02-20 μM, 5 days after MDI induction
Procedure: 3T3-L1 cells (ATCC) were maintained in high-glucose DMEM supplemented with 10% fetal bovine serum, 2 mM L-glutamine, 50 IU/mL penicillin, and 50 μg/mL streptomycin. A total of 2 × 10^4 cells per well were seeded in 12-well plates. After 48 hr, cells were exposed to the adipogenic cocktail MDI (500 μM isobutylmethylxanthine, 0.25 nM dexamethasone and 5 μg/mL insulin), 8 μg/mL biotin and 8 μg/mL pantothenate for 2 days. Induction media was removed and cells were exposed to test chemicals during 5 days, replacing the media every 2 days. Rosiglitazone (ROSI) and tributyltin (TBT) were used as positive controls at 100 nM and 50 nM final concentrations, respectively. All ToxCast™ chemicals were tested at 0.02, 0.2, 2, and 20 μM, and DMSO concentration was maintained at 0.1% across all treatments. If the chemical was toxic at 20 μM, we repeated the experiment at 10 μM.
Cells were either fixed in 3.7% formaldehyde in phosphate-buffered saline (PBS) for 30 min at room temperature (RT) for lipid quantitation, or homogenized in TriPure (Roche, Mannheim, Germany) for gene expression analysis. For lipid quantitation, fixed cells were washed twice with PBS and maintained in PBS overnight at 4°C to release residual phenol red. Background of cells were measured prior to staining. Cells were stained with 1 μg/mL Nile red (CAS No. 7385-67-3) (to detect lipid accumulation) and 1 μg/mL Hoechst 33342 (ThermoFisher Scientific) (to detect nuclei as a surrogate for cell number) in PBS for 15 min in the dark at RT and washed twice with PBS. […] Background values of Hoechst and Nile red were subtracted from the RFUs after staining and the ratio RFUNile Red:RFUHoechst was calculated. Data are represented as mean ± SEM. Total RNA was isolated using TriPure (Roche) as recommended by the manufacturer. Reverse transcription and quantitative real-time RT-PCR (QPCR) were performed using Transcriptor RT and SYBR® Green Master Mix (Roche). cDNA was quantitated in a LightCycler® 480 System (Roche Diagnostics, Basel, Switzerland) using primer sets listed in Table S4. Each primer set amplified a single band as determined by gel electrophoresis and melting curve analysis. QPCR data were analyzed using the 2^ΔΔCt method ([Livak and Schmittgen 2001]) relative to ribosomal protein 36b4, normalizing to 0.1% DMSO vehicle. Error bars represent the SEM from four to six biological replicates calculated using standard propagation of error ([Bevington and Robinson 2003]).

GAL4-mPPARγ [5] = molecular target: T1, GAL4-mPPARγ; assay: GAL4-mPPARγ antagonism in competition with 50 nM rosiglitazone, transiently transfected COS7 cells; format: cell-based
Procedure: as §1, §2

[6] = PPARγ, NA = not active, ref Filer et al. 2014, read-out: ATG Agonist AC50, 2014 Release
[7] = PPARγ, NA = not active, ref Knudsen et al. 2011, read-out: ATG Agonist AC50, 2011 Release
[8] = ToxCast 2014 release, ref Filer et al. 2014, read-out: Attagene AC50 (panel A, w/o Z-Score Correction ranking)
[9] = Cos-7 transient transfection, PPARγ activation or antagonism assays (Table 1, Table S6)
[10] = PPARγ, NA = not active, read-out: NCGC Agonist AC50, 2014 Release
[11] = Cos-7 transient transfection, PPARγ or RXRα activation assays (Table 2)
[12] = PPARγ direct binding, NA = not active, ref Filer et al. 2014, read-out: NVS Agonist AC50, 2014 Release

Row | SMILES | AC50 (PPARγ [1]; [6]) | AC50 (PPARγ [1]; [7]) [µM] | Activation COS7 (result in words), ToxCast PPARγ list (GAL4-mPPARγ [2]) | AC50 (PPARγ [3]) [µM] | Adipogenesis 3T3-L1 (result in words) (3T3-L1 preadipocytes) | other results
1 | CCc1ccc(C(=O)NN(C(=O)c2cc(C)cc(C)c2)C(C)(C)C)cc1 [Tebufenozide] | 7.6 µM | 6.3 | Inactive | 50.8 | – | –
2 | O=C(Nc1ccc([N+](=O)[O-])cc1Cl)c1cc(Cl)ccc1O [Niclosamide] | 0.56 µM | 0.56 | – | 35.9 | – | AC50 (PPARγ [1]; [8]): 0.6 µM; Activation COS7 (result in words), ToxCast PPARγ list (GAL4-mPPARγ [2]; [9]): Inactive; AC50 (PPARγ [4]; [10]): 29.9 µM
3 | O=S(=O)(O)C(F)(F)C(F)(F)C(F)(F)C(F)(F)C(F)(F)C(F)(F)C(F)(F)C(F)(F)F [PFOS, perfluorooctanesulfonic acid] | – | – | – | – | Negative | AC50 (PPARγ [1]; ToxCast Phase I 2011 release, NA = not active, ref Knudsen et al. 2011, read-out: ATGT PPARγ AC50): 26 µM; Activation COS7 (result in words), ToxPi chemicals (GAL4-mPPARγ [2]; [11]): Inactive; AC50 (Human PPARγ; direct binding, ToxCast Phase I 2011 release, NA = not active, ref Knudsen et al. 2011, read-out: NVS PPARγ AC50): 16 µM
4 | CCCN(CCOc1c(Cl)cc(Cl)cc1Cl)C(=O)n1ccnc1 [Prochloraz] | – | 3.5 | – | 81.5 | – | Activation COS7 (result in words), ToxCast PPARγ list (GAL4-mPPARγ [2]; [9]): Inactive; AC50 (Human PPARγ; [12]): 27.5 µM
5 | COC(=O)N(C(=O)N1CO[C@@]2(C(=O)OC)Cc3cc(Cl)ccc3C2=N1)c1ccc(OC(F)(F)F)cc1 [Indoxacarb] | 6.1 µM | 8.5 | Inactive | 10.7 | – | AC50 (PPARγ [4]; [10]): 44.1 µM
6 | CCOCN(C(=O)CCl)c1c(C)cccc1CC [Acetochlor] | 1.5 µM | 1.7 | – | 4.5 | Negative | AC50 (GAL4-mPPARγ [5]; Activation AC50 (PPARγ antagonists), Cos-7 transient transfection, competition with 50 nM rosiglitazone): 46.7 µM; Antagonism of PPARγ (GAL4-mPPARγ [5]; COS7, competition against 50 nM rosiglitazone): weak antagonists; IC50 (GAL4-mPPARγ [5]; COS7, in competition with 50 nM rosiglitazone): 46.7 µM; PPARγ antagonists: IC10, Fig 1B (GAL4-mPPARγ [5]; COS7, in competition with 50 nM rosiglitazone, computed from IC50): 9.54 µM; Activation COS7 (result in words): PPARγ antagonist (GAL4-mPPARγ [5]; Cos-7 transient transfection, competition with 50 nM rosiglitazone): PPARγ antagonist; Activation of GAL4-PPARγ (text) (GAL4-mPPARγ [2]; COS7, 100 μM through 0.137 μM): did not activate PPARγ; PPARγ antagonists: IC10, NCGC (PPARγ [3]; AC10, ToxCast 2014 release): 0.42 µM; IC50 (PPARγ [3]; read-out: PPARγ antagonists: IC50, NCGC, gain AC50, ToxCast 2014 release): 4.5 µM
7 | CCCCOCN(C(=O)CCl)c1c(CC)cccc1CC [Butachlor] | 2 µM | 2.1 | – | 26.4 | – | –
8 | CNC(=O)/C=C(\C)OP(=O)(OC)OC [Monocrotophos] | – | – | – | – | Negative | AC50 (PPARγ [1]; [8]): 2.2 µM; Activation COS7 (result in words), ToxPi chemicals (GAL4-mPPARγ [2]; [11]): Inactive; AC50 (Human PPARγ; direct binding, ToxCast 2014 release, ref Filer et al. 2014, read-out: NovaScreen AC50 (panel A)): 20.8 µM; AC50 (PPARγ [4]; ToxCast 2014 release, read-out: Tox21/NCGC AC50 (panel A)): 67.5 µM
9 | COCC(C)N(C(=O)CCl)c1c(C)csc1C (stereo not shown) [Dimethenamid] | 4.6 µM | 5.6 | Inactive | 21.4 | – | –
10 | COc1ccc(C(=CC(=O)N2CCOCC2)c2ccc(Cl)cc2)cc1OC [Dimethomorph] | 9.4 µM and 10.1 µM | 11 | Inactive | 32.3 | – | AC50 (Human PPARγ; [12]): 9.6 µM
11 | COC(=O)N(OC)c1ccccc1COc1ccn(-c2ccc(Cl)cc2)n1 [Pyraclostrobin] | 0.61 µM | 0.76 | Inactive | 0.7 | – | –
12 | N#Cc1c(Cl)c(Cl)c(Cl)c(C#N)c1Cl [Chlorothalonil] | – | – | Inactive | 0.9 | – | ATG Agonist AC50, 2011 Release (PPARγ [1]; PPARγ, NA = not active, ref Knudsen et al. 2011): negative; AC50 (Human PPARγ; [12]): 0.46 µM; AC50 (Human PPARγ; PPARγ direct binding, NA = not active, ref Knudsen et al. 2011, read-out: NVS Agonist AC50, 2011 Release): 0.6 µM; AC50 (PPARγ [4]; [10]): 82.8 µM
13 | C/C(=N\C#N)N(C)Cc1ccc(Cl)nc1 [Acetamiprid] | – | – | – | – | Positive | Activation COS7 (result in words), ToxPi chemicals (GAL4-mPPARγ [2]): Inactive; Adipogenesis 3T3-L1 (result in words) (3T3-L1 preadipocytes; listed as acetamiprid): promoted adipogenesis
14 | Cc1ccn2nc(S(=O)(=O)Nc3c(F)cccc3F)nc2n1 [Flumetsulam] | – | – | – | – | Negative | Activation COS7 (result in words), ToxPi chemicals (GAL4-mPPARγ [2]; [11]): Inactive
